Converted amounts (≈) assume the structure as drawn.
Assays:
Test in all cases: Antimicrobial assay (MIC, microtiter broth dilution)
Assay type in all cases: cell-based
P. mirabilis = details: for MIC P. mirabilis 23147: strain 23147; for MIC P. mirabilis 24231: strain 24231
E. faecium = details: strain 26143
T. mentagrophytes = details: strain 18748
S. marcescens = details: for MIC S. marcescens 18963: strain 18963; for MIC S. marcescens 23420: strain 23420
C. parapsilosis = details: for MIC C. parapsilosis 10232: strain 10232; for MIC C. parapsilosis 22109: strain 22109
E. faecalis = details: for MIC E. faecalis 23296: strain 23296; for MIC E. faecalis 29212: strain 29212
C. tropicalis = details: for MIC C. tropicalis 13803: strain 13803; for MIC C. tropicalis 28707: strain 28707
P. gingivalis = test system: P. gingivalis
E. floccosum = details: strain 52062
C. kefyr = details: strain 28838
P. aeruginosa = details: for MIC P aeruginosa: Table I, P. aeruginosa ATCC 27853; for MIC P. aeruginosa 27853: strain 27853 (Tables II-V)
Description: (§1) The procedure for the antimicrobial assay is based upon the guidelines of the National Committee for Clinical Laboratory Standards, Document M7-T2, Volume 8, No. 8, 1988.
(§2) 1-5×10^5 CFUs/ml of either S. aureus ATCC 25923, E. coli ATCC 25922, P. aeruginosa ATCC 27853, or C. albicans were added to the wells in full strength Mueller Hinton broth (BBL 11443) from a mid-log culture. The inoculum is standardized spectrophotometrically at 600 nm and is verified by colony counts. The plates are incubated for 16-20 hours at 37° C., and the minimal inhibitory concentrations (MIC) for the compounds are determined. Minimal inhibitory concentration is defined as the lowest concentration of amino acid or peptide which produces a clear well in the microtiter plate.

E. coli = details: for MIC E. coli: Table I, E. coli ATCC 25922; for MIC E. coli 25922: strain 25922 (Tables II-V)
Description: as §1, §2

C. albicans = details: for MIC C. albicans: Table I; for MIC C. albicans 14053: strain 14053
Description: as §1, §2

S. aureus = details: for MIC S. aureus: Table I, S. aureus ATCC 25923; for MIC S. aureus 29213: strain 29213 (Tables II-V)
Description: as §1, §2

T. rubrum = details: strain 36262
M. canis = details: strain 11621
C. difficile = details: for MIC C. difficile P324: strain P324; for MIC C. difficile TTU614: strain TTU614
L. fermentum = details: strain 23271
B. fragilis = details: strain 25285
S. epidermidis = test system: S. epidermidis

Row | Compound | MIC T. mentagrophytes 18748 (T. mentagrophytes) | MIC C. parapsilosis 10232 (C. parapsilosis) | MIC C. parapsilosis 22109 (C. parapsilosis) | MIC C. tropicalis 13803 (C. tropicalis) | MIC C. tropicalis 28707 (C. tropicalis) | MIC E. floccosum 52062 (E. floccosum) | MIC C. kefyr 28838 (C. kefyr) | MIC P aeruginosa (P. aeruginosa) | MIC P. aeruginosa 27853 (P. aeruginosa) | MIC E. coli (E. coli) | MIC E. coli 25922 (E. coli) | MIC C. albicans (C. albicans) | MIC C. albicans 14053 (C. albicans) | MIC S. aureus (S. aureus) | MIC S. aureus 29213 (S. aureus) | MIC T. rubrum 36262 (T. rubrum) | MIC M. canis 11621 (M. canis) | MIC C. difficile P324 (C. difficile) | MIC L. fermentum 23271 (L. fermentum) | MIC B. fragilis 25285 (B. fragilis) | also measured
1 | NC(N)=NC(Cc1ccccc1)C(=O)NCCCCCCCCCCCCNC(=O)C(Cc1ccccc1)N=C(N)N (stereo not drawn) [Compound 3, 1,12-[bis-N-α-amidino-phenylalanyl]diaminododecane] | 16 µg/mL (≈ 27.6 µM) | 2 µg/mL (≈ 3.46 µM) | 2 µg/mL (≈ 3.46 µM) | 2 µg/mL (≈ 3.46 µM) | 0.5 µg/mL (≈ 0.864 µM) | 16 µg/mL (≈ 27.6 µM) | 2 µg/mL (≈ 3.46 µM) | 8 µg/mL (≈ 13.8 µM) | 4,32 μg/ml | 4 µg/mL (≈ 6.91 µM) | 4 µg/mL (≈ 6.91 µM) | 4 µg/mL (≈ 6.91 µM) | 4 µg/mL (≈ 6.91 µM) | 1 µg/mL (≈ 1.73 µM) | 1 µg/mL (≈ 1.73 µM) | 16 µg/mL (≈ 27.6 µM) | 32 µg/mL (≈ 55.3 µM) | – | – | – | MIC P. mirabilis 23147 (P. mirabilis): > 256 µg/mL; MIC P. mirabilis 24231 (P. mirabilis): > 256 µg/mL; MIC E. faecium 26143 (E. faecium): 2 µg/mL (≈ 3.46 µM); MIC S. marcescens 18963 (S. marcescens): 64 µg/mL (≈ 111 µM); MIC S. marcescens 23420 (S. marcescens): > 256 µg/mL; MIC E. faecalis 19052 (E. faecalis; strain 19052): 1,2 μg/ml; MIC E. faecalis 19290 (E. faecalis; strain 19290): 1,2 μg/ml; MIC E. faecalis 23296 (E. faecalis): 1,2 μg/ml; MIC E. faecalis 29212 (E. faecalis): 1,2 μg/ml; MIC P. gingivalis 9-14K-1 (P. gingivalis; strain 9-14K-1): 4 µg/mL (≈ 6.91 µM); MIC P. gingivalis 381 (P. gingivalis; strain 381): 4 µg/mL (≈ 6.91 µM); MIC P. gingivalis A7A1-28 (P. gingivalis; strain A7A1-28): 4 µg/mL (≈ 6.91 µM); MIC P. gingivalis FAY-19M-1 (P. gingivalis; strain FAY-19M-1): 4 µg/mL (≈ 6.91 µM); MIC P. gingivalis W50 (P. gingivalis; strain W50): 4 µg/mL (≈ 6.91 µM)
2 | N=C(N)NC(Cc1ccc(O)cc1)C(=O)NCCCCCCCCCCCCNC(=O)C(Cc1ccc(O)cc1)NC(=N)N (stereo not drawn) [Compound 4, 1,12-[bis-N-α-amidino-tyrosyl)diaminododecane] | – | – | – | – | – | – | – | 128 µg/mL (≈ 210 µM) | 128 µg/mL (≈ 210 µM) | 128 µg/mL (≈ 210 µM) | 64,256 μg/ml | > 256 µg/mL | 128,256 μg/ml | 2 µg/mL (≈ 3.27 µM) | 2,4 μg/ml | – | – | 4 µg/mL (≈ 6.55 µM) | 4,8 μg/ml | 256 µg/mL (≈ 419 µM) | MIC C. difficile TTU614 (C. difficile): 32 µg/mL (≈ 52.4 µM)
3 | NC(N)=NC(Cc1ccccc1)C(=O)NCCCCCCCNC(=O)C(Cc1ccccc1)N=C(N)N (stereo not drawn) [Compound 6, 1,7-[bis-N-α-amidino-phenylalanyl]diaminoheptane] | – | – | – | – | – | – | – | > 256 µg/mL | > 256 µg/mL | > 256 µg/mL | > 256 µg/mL | 256 µg/mL (≈ 503 µM) | 256 µg/mL (≈ 503 µM) | 64 µg/mL (≈ 126 µM) | 64,128 μg/ml | – | – | 128 µg/mL (≈ 252 µM) | 64 µg/mL (≈ 126 µM) | 256 µg/mL (≈ 503 µM) | –
4 | N=C(N)NC(Cc1ccc(F)cc1)C(=O)NCCCCCCCCCCCCNC(=O)C(Cc1ccc(F)cc1)NC(=N)N (stereo not drawn) [Compound 11, 1,12-[bis-N-α-amidino-p-fluoro-phenylalanyl]diaminododecane] | 4 µg/mL (≈ 6.51 µM) | 1,2 μg/ml | 1 µg/mL (≈ 1.63 µM) | 2 µg/mL (≈ 3.25 µM) | 0.5 µg/mL (≈ 0.813 µM) | 4 µg/mL (≈ 6.51 µM) | 1 µg/mL (≈ 1.63 µM) | 8 µg/mL (≈ 13 µM) | 8,16 μg/ml | 4 µg/mL (≈ 6.51 µM) | 2,16 μg/ml | 16 µg/mL (≈ 26 µM) | 2,64 μg/ml | 2 µg/mL (≈ 3.25 µM) | – | 8 µg/mL (≈ 13 µM) | 4 µg/mL (≈ 6.51 µM) | 2 µg/mL (≈ 3.25 µM) | 1 µg/mL (≈ 1.63 µM) | 2 µg/mL (≈ 3.25 µM) | MIC P. mirabilis 23147 (P. mirabilis): > 256 µg/mL; MIC P. mirabilis 24231 (P. mirabilis): 7256 µg/mL (≈ 11800 µM); MIC E. faecium 26143 (E. faecium): 1 µg/mL (≈ 1.63 µM); MIC S. marcescens 18963 (S. marcescens): 16 µg/mL (≈ 26 µM); MIC S. marcescens 23420 (S. marcescens): > 256 µg/mL; MIC C. difficile TTU614 (C. difficile): 4 µg/mL (≈ 6.51 µM); MIC S. epidermidis 1050 (S. epidermidis; strain 1050): 1 µg/mL (≈ 1.63 µM); MIC S. epidermidis 1090 (S. epidermidis; strain 1090): 2 µg/mL (≈ 3.25 µM); MIC E. faecalis 23296 (E. faecalis): 1 µg/mL (≈ 1.63 µM); MIC E. faecalis 29212 (E. faecalis): 1 µg/mL (≈ 1.63 µM); MIC P. aeruginosa 1133 (P. aeruginosa; strain 1133): 32 µg/mL (≈ 52.1 µM); MIC P. aeruginosa El Salvador (P. aeruginosa; strain El Salvador): 128 µg/mL (≈ 208 µM); MIC S. aureus 1093 (S. aureus; strain 1093): 2 µg/mL (≈ 3.25 µM); MIC S. aureus 1096 (S. aureus; strain 1096): 2 µg/mL (≈ 3.25 µM)
5 | NC(Cc1ccc(F)cc1)C(=O)NCCCCCCCCCCCCNC(=O)C(N)Cc1ccc(F)cc1 (stereo not shown) [Compound 19] | 4 µg/mL (≈ 7.54 µM) | – | – | – | – | 16 µg/mL (≈ 30.1 µM) | – | – | 256 µg/mL (≈ 482 µM) | – | 16 µg/mL (≈ 30.1 µM) | – | 32 µg/mL (≈ 60.3 µM) | – | 4 µg/mL (≈ 7.54 µM) | 16 µg/mL (≈ 30.1 µM) | 32 µg/mL (≈ 60.3 µM) | – | – | – | –
6 | N=C(N)NC(Cc1ccccc1)C(=O)Nc1ccc(C=Cc2ccc(NC(=O)C(N)Cc3ccccc3)cc2)cc1 (stereo not drawn) [Compound 24, 4-(N-α-amidino-phenylalanyl)-4'-phenylalanyl-diaminostilbene] | – | – | – | – | – | – | – | – | 32,64 μg/ml | – | 16 µg/mL (≈ 29.3 µM) | – | 256 µg/mL (≈ 468 µM) | – | – | – | – | – | 4 µg/mL (≈ 7.32 µM) | 8 µg/mL (≈ 14.6 µM) | MIC C. difficile TTU614 (C. difficile): 16 µg/mL (≈ 29.3 µM)
7 | N=C(N)NCCCCCCCCCCCCNC(=N)N [Compound 36, 1,12 [bisguanyl]diaminododecane] | – | 0.5 µg/mL (≈ 1.76 µM) | 4 µg/mL (≈ 14.1 µM) | 0.5 µg/mL (≈ 1.76 µM) | ≤ 0.25 µg/mL | – | 4 µg/mL (≈ 14.1 µM) | 128 µg/mL (≈ 450 µM) | 128 µg/mL (≈ 450 µM) | 32 µg/mL (≈ 112 µM) | 32 µg/mL (≈ 112 µM) | 32 µg/mL (≈ 112 µM) | 4,32 μg/ml | 8 µg/mL (≈ 28.1 µM) | 8 µg/mL (≈ 28.1 µM) | – | – | – | – | – | –
8 | N-α-amidino phenylalanyl hexadecylamide [Compound 34] | – | – | – | – | – | – | – | > 256 µg/mL | – | > 256 µg/mL | – | 64 µg/mL | – | 32 µg/mL | – | – | – | – | – | – | –
